In patent US20100223737A1, “ORGANIC CATALYST WITH ENHANCED ENZYME COMPATIBLITY” (priority 2009, published 2010):

Assays:
Format in all cases: biochemical
Duramyl = assay: Organic Catalyst/Enzyme Compatibility Test (alpha amylase activity assay), Duramyl; settings: (Ac/Ab)x100; [Peracetic Acid]=5.0 ppm; [organic catalyst]=0.5 ppm; 40° C.; sample at 7 minutes 45 seconds
Natalase = assay: Organic Catalyst/Enzyme Compatibility Test (alpha amylase activity assay), Natalase; settings: (Ac/Ab)x100; [Peracetic Acid]=5.0 ppm; [organic catalyst]=0.5 ppm; 40° C.; sample at 7 minutes 45 seconds
[1] = system: Termamyl, Duramyl and Natalase; assay: Organic Catalyst/Enzyme Compatibility Test, average of the three enzymes; settings: ECV=(ECVter+ECVdur+ECVnat)/3; [Peracetic Acid]=5.0 ppm; [organic catalyst]=0.5 ppm

Substance	Enzyme Compatibility Values ECVdur (Duramyl)	Enzyme Compatibility Values ECVnat (Natalase)	Enzyme Compatibility Values ECV [1]
Sulfuric acid mono-[2-(3,4-dihydro-isoquinolin-2-yl)-1-(2-butyloctyloxymethyl)-ethyl]ester, internal salt [Entry 4]	101	102	101
Sulfuric acid mono-[2-(3,4-dihydro-isoquinolin-2-yl)-1-(2-propylheptyloxymethyl)-ethyl]ester, internal salt [Entry 3]	101	99	99
